Measurements published in patent US20220023317A1, “PREVENTING OR MITIGATING CHEMOTHERAPY INDUCED ALOPECIA USING VITAMIN D” (Berg LLC, priority 2013, published 2022).

What was measured:
[1] = test system: Long Evans and Sprague Dawley rats; settings: CTX 37.5 mg/kg once i.p.
Protocol: Specifically, Long Evans and Sprague Dawley rats with pups were purchased from Harlan Laboratories, Inc. They were housed and fed according to applicable animal handling rules and regulations. Pups were allowed to acclimate for 48 hours prior to the start of experiments. […] Rats were isolated from their littermates and mother for 6-hour periods of time. Subsequently, the treated area was cleaned with soap and water and pups were returned to their litters. On day 13, rats either received etoposide (1.5 mg/kg daily for 3 days) or cyclophosphamide (CTX) (37.5 mg/kg once) or combination cyclophosphamide (35 mg/kg once) and doxorubicin (2.5 mg/kg daily for 3 days). All chemotherapies were purchased from Sigma and were given intraperitoneally (i.p.) in a total volume of 0.1 mL. Alopecia was recorded 10 days after the last dose of chemotherapy.

MIAC51 = assay: Cure / survival rate of chloroleukemic rats after chemotherapy; type: in vivo, rat; settings: CTX, after two rounds of chemotherapy
Protocol: On day 5 after birth all rats received 1×105 MIAC51 intraperitoneally in 0.1 mL of serum free (SF) RPMI. MIAC51 were cultured in RPMI 1640 supplemented with L-glutamine and 10% fetal bovine serum at […] in a 5% CO2, 100% humidity incubator. Cells were grown to 50% confluency (1.5×106 mL) collected in 50 mL conical tubes, centrifuged at 600 g for 10 minutes at room temperature and resuspended in SF-RPMI at a concentration of 1×10^6/mL prior to injection.

Long Evans Rats = assay: Alopecia in chloroleukemic Long Evans rats receiving multi-course chemotherapy; type: in vivo, rat; settings: CTX
Description: Animals were then randomized in four groups.
Treatments were started on day 6 after birth.
Unused preparations were disposed of.

O=P1(N(CCCl)CCCl)NCCCO1 (stereo not drawn) [CTX]
alopecia in control rats that received cyclophosphamide [1]: totally alopecic
% cured / survival rate (MIAC51): 20%
Cured (number of rats) (MIAC51; of 40): 8
extent of alopecia (grade) (Long Evans Rats; first round of chemotherapy, all rats): +4
rats with alopecia grade 4+ (number) (Long Evans Rats; first round, 4+ = 75-100% alopecia, of 40): 40
rats with alopecia grade 4+ (number) (Long Evans Rats; second round, of 8): 8
